In one test the target is Human LOXL2 (Homo sapiens (Human), UniProt Q9Y4K0). Kind of test: LOXL2 inhibition, peroxidase-coupled Amplex Red amine oxidase assay. It counts as biochemical. The note with it: 30 min preincubation at 37° C., putrescine substrate. A digest of the protocol:
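Enzyme in 1.2 M urea, 50 mM sodium borate pH 8.2 with 1 μM mofegiline and 0.5 mM pargyline, preincubated 30 min at 37° C with compound (11-point CRC). Putrescine at twice KM (10 mM for LOXL2) with Amplex Red/HRP; fluorescence (ex 565, em 590) read kinetically 30 min; IC50 from slopes.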

Test [1] deals with bleomycin induced lung fibrosis. Kind of test: Bleomycin induced lung fibrosis model. It counts as in vivo. The following applies: mouse, intranasal bleomycin, 15 mg/kg. The procedure:
Bleomycin induced lung fibrosis in rodents is a widely accepted experimental model to determine the anti-fibrotic activity of therapeutic agents.
Fibrosis is induced by intranasal administered of bleomycin sulphate at a dose of 0.05 U/mouse in a total volume of 50 uL PBS (see Corbel, M., et al Inhibition of bleomycin-induced pulmonary fibrosis in mice by the matrix metalloproteinase inhibitor batimastat J Pathol. 2001 April; 193(4):538-45.) Compound 12 is given 0.1-100 mg/Kg throughout the period of the experimental procedure or 7 days after bleomycin administration and then throughout the entire study.
Formalin fixed lungs sections stained with haematoxylin and eosin are assessed for fibrosis as per the scale outlined by Ashcroft et al (Simple method of estimating severity of pulmonary fibrosis on a numerical scale J Clin Pathol 1988; 41:467-470).

In test [2] the test system is STAM mice, NASH liver fibrosis. Kind of test: Streptozotocin and high fat diet induced liver fibrosis (STAM model). It counts as in vivo, mouse. The following applies: daily oral gavage 10-30 mg/kg, FIG. 6. Here is the method:
High fat/carbohydrate diet induced liver fibrosis is the most common reason for liver dysfunction and ultimately liver failure. NASH is induced in male mice by a single subcutaneous injection of 200 μg streptozotocin solution 2 days after birth and feeding with high fat diet after 4 weeks of age (STAM™ model).
LOXL2 inhibitor compound 112 was administered by daily oral gavage at doses between 10-30 mg/kg 8 weeks after streptozotocin application. Mice were sacrificed after NASH had been established and whole blood samples were taken via cardiac puncture. Liver samples were collected and washed with cold saline. Liver weight was measured. The left lateral, right and caudate lobes of livers were snap frozen in liquid nitrogen and stored at −80° C. For HE staining, sections were cut from paraffin blocks of liver tissue prefixed in Bouin's solution and stained with Lillie-Mayer's Hematoxylin and eosin solution. NAFLD Activity score (NAS) was calculated according to the criteria of Kleiner (Kleiner D E. et al., Design and validation of a histological scoring system for nonalcoholic fatty liver disease. Hepatology, 2005; 41:1313). To visualize collagen deposition, Bouin's fixed liver sections were stained using picro-Sirius red solution and the area of fibrosis was quantified (See FIG. 6).

Test [3] relates to primary fibroblasts from confirmed cases of IPF. Kind of test: Collagen cross-link formation in in vitro fibroblastic foci model of IPF. It counts as cell-based, human. The note with it: TGF-β1 stimulated foci, six weeks culture, FIGS. 7a and 7b. The source says:
The lung tissue of patients with idiopathic pulmonary fibrosis (IPF) is characterised by dense collections of myofibroblasts and extracellular matrix (ECM) termed ‘fibroblastic foci’. Using a novel in vitro model of fibroblastic foci (Jones et al., AJRCCM 191; 2015:A4912) the formation of lysyl oxidase (LOX) mediated collagen cross-links and the effects of the nonselective LOX inhibitor β-aminopropionitrile (BAPN) as well lysyl oxidase like-2 (LOXL2)-selective inhibitors were investigated.
Cultures of primary fibroblasts were grown out from clinical diagnostic biopsies of fibrotic lung and stored in liquid nitrogen. […]
To quantify collagen cross-links (Robins Biochem Soc Trans 2007; 35(5): 849-852; Saito et al Anal. Biochem. 1997; 253: 26-32; Sims, Avery & Bailey Methods in Molecular Biology 2000; vol 139: 11-26), cultures were treated with potassium borohydride to stabilise the reducible immature cross-links, and hydrolysed in 6N HCl at 100° C. for 16 hr. Total collagen content was assessed by hydroxyproline assay. Immature cross-links were assessed by LC/MS/MS and mature pyridinoline cross-links by ELISA. Cross-link data is expressed as moles of cross-link per mole collagen.

pIC50: −log10 of the molar value. Counter-ions that a name gives are not always drawn. A value given as a limit tells only on which side of the number the result lay.

Sequence of Human LOXL2 (Q9Y4K0 26-774): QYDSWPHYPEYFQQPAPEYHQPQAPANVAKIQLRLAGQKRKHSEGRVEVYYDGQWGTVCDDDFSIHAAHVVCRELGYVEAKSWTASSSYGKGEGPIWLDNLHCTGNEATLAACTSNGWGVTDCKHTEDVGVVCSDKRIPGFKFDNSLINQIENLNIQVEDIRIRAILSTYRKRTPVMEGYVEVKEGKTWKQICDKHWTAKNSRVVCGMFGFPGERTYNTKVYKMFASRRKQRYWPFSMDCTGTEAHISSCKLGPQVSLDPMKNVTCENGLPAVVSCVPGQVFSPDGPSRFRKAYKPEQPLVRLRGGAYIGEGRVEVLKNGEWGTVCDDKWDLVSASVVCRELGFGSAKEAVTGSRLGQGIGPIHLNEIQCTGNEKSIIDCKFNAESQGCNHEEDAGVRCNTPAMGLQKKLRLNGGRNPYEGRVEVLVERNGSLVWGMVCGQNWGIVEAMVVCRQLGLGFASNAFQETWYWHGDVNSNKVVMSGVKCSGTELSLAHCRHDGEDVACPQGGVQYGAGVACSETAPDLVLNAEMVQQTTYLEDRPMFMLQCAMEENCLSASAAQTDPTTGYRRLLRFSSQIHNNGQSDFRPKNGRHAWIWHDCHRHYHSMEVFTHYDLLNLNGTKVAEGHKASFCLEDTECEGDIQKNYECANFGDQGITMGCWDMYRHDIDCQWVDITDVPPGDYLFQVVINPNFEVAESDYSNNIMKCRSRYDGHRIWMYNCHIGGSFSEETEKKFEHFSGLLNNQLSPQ

The molecule `CCOC(=O)c1ccc2c(c1)c(-c1cccc(S(=O)(=O)N(C)C)c1)c(C)n2C/C(F)=C/CN` [Compound 12, (Z)-ethyl 1-(4-amino-2-fluorobut-2-en-1-yl)-3-(3-(N,N-dimethylsulfamoyl)phenyl)-2-methyl-1H-indole-5-carboxylate] gave a pIC50 at Human LOXL2 of more than 6.52. In addition, in test [1], the “Ashcroft score in the lungs” value is recorded as “significantly reduced”.

On Human LOXL2, `Cc1c(-c2cccc(S(=O)(=O)N(C)C)c2)c2ncccc2n1C/C(F)=C/CN` [Compound 25, (Z)-3-(1-(4-amino-2-fluorobut-2-en-1-yl)-2-methyl-1H-pyrrolo[3,2-b]pyridin-3-yl)-N,N-dimethylbenzenesulfonamide Dihydrochloride] had a negative-log IC50 (pIC50) of more than 6.52.

Molecule `Cc1ccc2c(n1)c(-c1cccc(S(C)(=O)=O)c1)c(C)n2C/C(F)=C/CN` [Compound 112, (Z)-4-(2,5-dimethyl-3-(3-(methylsulfonyl)phenyl)-1H-pyrrolo[3,2-b]pyridin-1-yl)-3-fluorobut-2-en-1-amine Dihydrochloride] gave a pIC50 against Human LOXL2 of more than 6.52. Moreover, the “liver fibrosis (picro-Sirius red area of fibrosis)” value in test [2] is reported as “reduce lilver fibrosis”. Besides, in test [3], the “collagen cross-link formation (immature and mature cross-links)” value was “reduced cross-link formation in a concentration dependent manner”.
